pIC50: −log10 of the molar value.
System: 521955-158-R2-J5-PDC complex spheroids, viability
Experiment: Anticancer human tumor 521955-158-R2-J5-PDC patient-derived pancreatic carcinoma cell line growth inhibition [RAS]
Settings: for pIC50: curve of first compound; for viability, T/C: stronger effect = lower value
Summary of the method: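 Tumour cells grown as complex spheroids with HUVEC endothelial cells and mesenchymal stem cells, treated with RAS pathway inhibitor combinations. Each agent spans half-log steps from near clinical Cmax, or 10 microM where Cmax is unknown.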

[1] = second compound 0.00316 µM, first compound 0.0316 µM
[2] = second compound 0.00316 µM, first compound 0.1 µM
[3] = second compound 0.00316 µM, first compound 0.316 µM
[4] = second compound 0.00316 µM, first compound 1 µM
[5] = second compound 0.00316 µM, first compound 3.16 µM
[6] = second compound 0.00316 µM, first compound 10 µM
[7] = second compound 0.01 µM, first compound 0.0316 µM
[8] = second compound 0.01 µM, first compound 0.1 µM
[9] = second compound 0.01 µM, first compound 0.316 µM
[10] = second compound 0.01 µM, first compound 1 µM
[11] = second compound 0.01 µM, first compound 3.16 µM
[12] = second compound 0.01 µM, first compound 10 µM
[13] = second compound 0.0316 µM, first compound 0.0316 µM
[14] = second compound 0.0316 µM, first compound 0.1 µM
[15] = second compound 0.0316 µM, first compound 0.316 µM
[16] = second compound 0.0316 µM, first compound 1 µM
[17] = second compound 0.0316 µM, first compound 3.16 µM
[18] = second compound 0.0316 µM, first compound 10 µM
[19] = second compound 0.1 µM, first compound 0.0316 µM
[20] = second compound 0.1 µM, first compound 0.1 µM
[21] = second compound 0.1 µM, first compound 0.316 µM
[22] = second compound 0.1 µM, first compound 1 µM
[23] = second compound 0.1 µM, first compound 3.16 µM
[24] = second compound 0.1 µM, first compound 10 µM
[25] = second compound 0.316 µM, first compound 0.0316 µM
[26] = second compound 0.316 µM, first compound 0.1 µM
[27] = second compound 0.316 µM, first compound 0.316 µM
[28] = second compound 0.316 µM, first compound 1 µM
[29] = second compound 0.316 µM, first compound 3.16 µM
[30] = second compound 0.316 µM, first compound 10 µM
[31] = second compound 1 µM, first compound 0.0316 µM
[32] = second compound 1 µM, first compound 0.1 µM
[33] = second compound 1 µM, first compound 0.316 µM
[34] = second compound 1 µM, first compound 1 µM
[35] = second compound 1 µM, first compound 3.16 µM
[36] = second compound 1 µM, first compound 10 µM
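Note: compound exposure lasted seven days before the viability read.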
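Throughout, for viability, T/C: spheroids also contain HUVEC endothelial cells and mesenchymal stem cells as stroma.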

## Cc1nc(N2CCC3(CC2)COC(C)C3N)c(CO)nc1Sc1ccnc(N)c1Cl (stereo unspecified) + C=CC(=O)N1CCN(c2nc(OCC3CCCN3C)nc3c(F)c(-c4nc(N)cc(C)c4C(F)(F)F)c(Cl)cc23)C(C)C1
Second compound 0.00316 µM
  pIC50: < 5.00
Second compound 0.01 µM
  pIC50: < 5.00
Second compound 0.0316 µM
  pIC50: < 5.00
Second compound 0.1 µM
  pIC50: < 5.00
Second compound 0.316 µM
  pIC50: < 5.00
Second compound 1 µM
  pIC50: < 5.00
[1]
  viability, T/C: 88.7%
[2]
  viability, T/C: 77.2%
[3]
  viability, T/C: 69.8%
[4]
  viability, T/C: 70.5%
[5]
  viability, T/C: 60.1%
[6]
  viability, T/C: 56.8%
[7]
  viability, T/C: 81.2%
[8]
  viability, T/C: 79%
[9]
  viability, T/C: 64.6%
[10]
  viability, T/C: 64.2%
[11]
  viability, T/C: 60.3%
[12]
  viability, T/C: 63.3%
[13]
  viability, T/C: 73.8%
[14]
  viability, T/C: 90.9%
[15]
  viability, T/C: 72.1%
[16]
  viability, T/C: 71.6%
[17]
  viability, T/C: 60.7%
[18]
  viability, T/C: 56.9%
[19]
  viability, T/C: 101%
[20]
  viability, T/C: 78.5%
[21]
  viability, T/C: 70.5%
[22]
  viability, T/C: 63.2%
[23]
  viability, T/C: 63%
[24]
  viability, T/C: 54.1%
[25]
  viability, T/C: 100%
[26]
  viability, T/C: 80.3%
[27]
  viability, T/C: 61%
[28]
  viability, T/C: 61.3%
[29]
  viability, T/C: 64.8%
[30]
  viability, T/C: 56%
[31]
  viability, T/C: 106%
[32]
  viability, T/C: 70.1%
[33]
  viability, T/C: 66.5%
[34]
  viability, T/C: 62.6%
[35]
  viability, T/C: 55.3%
[36]
  viability, T/C: 48.3%

## NC1c2ccccc2OC12CCN(c1cnc3c(N4CCCc5ncccc54)n[nH]c3n1)CC2 (stereo unspecified) + C=CC(=O)N1CCN(c2nc(OCC3CCCN3C)nc3c(F)c(-c4nc(N)cc(C)c4C(F)(F)F)c(Cl)cc23)C(C)C1
Second compound 0.00316 µM
  pIC50: < 5.00
Second compound 0.01 µM
  pIC50: < 5.00
Second compound 0.0316 µM
  pIC50: < 5.00
Second compound 0.1 µM
  pIC50: 5.00
Second compound 0.316 µM
  pIC50: < 5.00
Second compound 1 µM
  pIC50: < 5.00
[1]
  viability, T/C: 69.6%
[2]
  viability, T/C: 69.4%
[3]
  viability, T/C: 64.4%
[4]
  viability, T/C: 61.5%
[5]
  viability, T/C: 54.8%
[6]
  viability, T/C: 59.3%
[7]
  viability, T/C: 68%
[8]
  viability, T/C: 68%
[9]
  viability, T/C: 62.1%
[10]
  viability, T/C: 63.2%
[11]
  viability, T/C: 53.7%
[12]
  viability, T/C: 65.6%
[13]
  viability, T/C: 65.8%
[14]
  viability, T/C: 79.6%
[15]
  viability, T/C: 69.1%
[16]
  viability, T/C: 61.5%
[17]
  viability, T/C: 65.3%
[18]
  viability, T/C: 51.8%
[19]
  viability, T/C: 73%
[20]
  viability, T/C: 79.8%
[21]
  viability, T/C: 55.1%
[22]
  viability, T/C: 57.7%
[23]
  viability, T/C: 51.8%
[24]
  viability, T/C: 58.8%
[25]
  viability, T/C: 75.4%
[26]
  viability, T/C: 59.2%
[27]
  viability, T/C: 58.1%
[28]
  viability, T/C: 59.5%
[29]
  viability, T/C: 46.1%
[30]
  viability, T/C: 60.5%
[31]
  viability, T/C: 70.3%
[32]
  viability, T/C: 61.4%
[33]
  viability, T/C: 54.7%
[34]
  viability, T/C: 69.6%
[35]
  viability, T/C: 60.4%
[36]
  viability, T/C: 58.3%

## Nc1ccn(C2OC(CO)C(O)C2(F)F)c(=O)n1 (stereo unspecified) + C=CC(=O)N1CCN(c2nc(OCC3CCCN3C)nc3c(F)c(-c4nc(N)cc(C)c4C(F)(F)F)c(Cl)cc23)C(C)C1
Second compound 0.00316 µM
  pIC50: 6.87
Second compound 0.01 µM
  pIC50: 6.65
Second compound 0.0316 µM
  pIC50: 6.56
Second compound 0.1 µM
  pIC50: 6.84
Second compound 0.316 µM
  pIC50: 6.59
Second compound 1 µM
  pIC50: 6.63
Second compound 0.00316 µM, first compound 0.00316 µM
  viability, T/C: 94.2%
Second compound 0.00316 µM, first compound 0.01 µM
  viability, T/C: 88.7%
[1]
  viability, T/C: 65%
[2]
  viability, T/C: 59%
[3]
  viability, T/C: 36.6%
[4]
  viability, T/C: 12.9%
Second compound 0.01 µM, first compound 0.00316 µM
  viability, T/C: 94.2%
Second compound 0.01 µM, first compound 0.01 µM
  viability, T/C: 89%
[7]
  viability, T/C: 75.5%
[8]
  viability, T/C: 73.3%
[9]
  viability, T/C: 39.8%
[10]
  viability, T/C: 15.3%
Second compound 0.0316 µM, first compound 0.00316 µM
  viability, T/C: 93.2%
Second compound 0.0316 µM, first compound 0.01 µM
  viability, T/C: 93.8%
[13]
  viability, T/C: 72.4%
[14]
  viability, T/C: 67%
[15]
  viability, T/C: 52.7%
[16]
  viability, T/C: 13%
Second compound 0.1 µM, first compound 0.00316 µM
  viability, T/C: 119%
Second compound 0.1 µM, first compound 0.01 µM
  viability, T/C: 88.6%
[19]
  viability, T/C: 72.4%
[20]
  viability, T/C: 50.5%
[21]
  viability, T/C: 51.5%
[22]
  viability, T/C: 11.9%
Second compound 0.316 µM, first compound 0.00316 µM
  viability, T/C: 103%
Second compound 0.316 µM, first compound 0.01 µM
  viability, T/C: 93.4%
[25]
  viability, T/C: 77.1%
[26]
  viability, T/C: 70.1%
[27]
  viability, T/C: 49.6%
[28]
  viability, T/C: 11.7%
Second compound 1 µM, first compound 0.00316 µM
  viability, T/C: 106%
Second compound 1 µM, first compound 0.01 µM
  viability, T/C: 100%
[31]
  viability, T/C: 74.4%
[32]
  viability, T/C: 63%
[33]
  viability, T/C: 54.8%
[34]
  viability, T/C: 13%

Source: PubChem BioAssay AID2060900 (Molecular Pharmacology Branch, DTP, NCI, 2025)
